Assay results published in patent US11193164B2, “Methods of diagnosing and treating cancer targeting extrachromosomal DNA” (The Regents of the University of California, priority 2017, dated 2021).

How the values were obtained:
GBM39 cells [1] = test: Next generation sequencing fine structure analysis of EGFRvIII amplification in GBM39 cultures; assay type: cell-based, human; settings: Erlotinib Treatment (ERZ) sample (row 4), FIG. 13B, naive samples 110 to 150
GBM39 cells [2] = test: FISH images of EGFRvIII amplification (extrachromosomal or chromosomal DNA) in GBM39 cells; assay type: cell-based, human; settings: FIG. 13A
Method: Cytogenetics. Metaphase cells were obtained by treating cells with Karyomax (Gibco) at a final concentration of 0.01 μg/ml for 1-3 hours. Cells were collected, washed in PBS, and resuspended in 0.075 M KCl for 15-30 minutes. Carnoy's fixative (3:1 methanol/glacial acetic acid) was added dropwise to stop the reaction. Cells were washed an additional 3 times with Carnoy's fixative, before being dropped onto humidified glass sides for metaphase cell preparations. For ECdetect analyses, DAPI was added to the slides. Images in the main figures were captured with an Olympus FV1000 confocal microscope. All other images were captured at a magnification of 1000 with an Olympus BX43 microscope equipped with a QiClick cooled camera. FISH was performed by adding the appropriate DNA FISH probe onto the fixed metaphase spreads. A coverslip was added and sealed with rubber cement. DNA denaturation was carried out at 75° C. for 3-5 minutes and the slides were allowed to hybridize overnight at 37° C. in a humidified chamber. Slides were subsequently washed in 0.4×SSC at 50° C. for 2 minutes, followed by a final wash in 2×SSC/0.05% Tween-20. Metaphase cells and interphase nuclei were counterstained with DAPI, a coverslip was applied, and images were captured.

C#Cc1cccc(Nc2ncnc3cc(OCCOC)c(OCCOC)cc23)c1 [Erlotinib]
Average copy numbers of amplified intervals as determined from sequencing analysis (GBM39 cells [1]): 5.4 | Location of EGFRvIII amplification in FISH images (GBM39 cells [2]; GBM39 cells after Drug Withdrawal): EC amplification | Location of EGFRvIII amplification in FISH images (GBM39 cells [2]; GBM39 cells in response to Erlotinib Treatment (ERZ), naive cells EC amplification): HSR amplification
